Measurements as given in US5874592A, “Physiologically active substance EI-2128-1” (Kyowa Hakko Kogyo Co., Ltd., priority 1996, dated 1999).
≈ marks a conversion by molar mass, not a printed value.

Columns and labels:
[1] = test system: Bacillus subtilis No. 10707; assay: Antibacterial activity, agar dilution method; format: cell-based; conditions: Bacillus subtilis No. 10707, agar dilution, pH 7.0
Solubility = format: physicochemical; conditions: methanol, acetonitrile, and chloroform
[2] = test system: Candida albicans ATCC 10231; assay: Antibacterial activity, agar dilution method; format: cell-based; conditions: ATCC10231; Candida albicans ATCC 10231, agar dilution, pH 7.0
[3] = test system: Proteus vulgaris ATCC 6897; assay: Antibacterial activity, agar dilution method; format: cell-based; conditions: ATCC6897; Proteus vulgaris ATCC 6897, agar dilution, pH 7.0
[4] = test system: Staphylococcus aureus subsp. aureus ATCC 6538P; assay: Antibacterial activity, agar dilution method; format: cell-based; conditions: ATCC6538P, pH 7.0
[5] = test system: production of IL-1β by human monocyte-derived THP-1 cells; assay: Inhibitory activity against the production of IL-1β by LPS-stimulated THP-1 cells (ELISA); format: cell-based; conditions: LPS 25 μg/ml, 4 hours, PMA-differentiated THP-1 cells, read-out: 50% inhibitory concentration against the IL-1 production by THP-1 cells stimulated by LPS
Protocol: The inhibitory activity of the compound of the present invention, EI-2128-1, against the production of IL-1β by human monocyte-derived THP-1 cells (ATCC No. TIB 202) was examined in the following manner. The amount of IL-1β was determined by the ELISA method.
THP-1 cells were suspended in RPMI1640 medium (Nissui Pharmaceutical Co., Ltd.) containing 10% inactivated fetal calf serum at a concentration of 1×10^5 cells/ml. The cell suspension was put into wells of a 24-well plate in an amount of 1 ml/well. Phorbol 12-myristate 13-acetate (PMA, final concentration: 30 nM) was added to the wells, followed by incubation in a 5% CO2 -incubator at 37° C. for 65 hours to differentiate the cells into macrophage.
Then, the plate was gently washed with serum-free RPMI1640 medium to remove the cells which were not adhered to the wells, and the residue was cultured for 4 hours in serum-free RPMI1640 medium (1 ml/well) containing lipopolysaccharide (LPS, final concentration: 25 μg/ml) and the test compound (final concentration: 0.05-50 μg/ml).
After the completion of culturing, the amount of IL-1β released into the culture supernatant was determined by using an IL-1β determination kit (Amersham Corp.).
The IL-1 production inhibition rate was calculated according to the following equation to obtain IC50 (50% inhibitory concentration).
IL-1 production inhibition rate (%)=(A-B)/(A-C)×100 […]

[6] = test system: Klebsiella pneumoniae subsp. pneumoniae ATCC 10031; assay: Antibacterial activity, agar dilution method; format: cell-based; conditions: ATCC10031; Klebsiella pneumoniae subsp. pneumoniae ATCC 10031, agar dilution, pH 7.0
[7] = test system: Enterococcus hirae ATCC 10541; assay: Antibacterial activity, agar dilution method; format: cell-based; conditions: ATCC10541; Enterococcus hirae ATCC 10541, agar dilution, pH 7.0

In the case of `CCCCCCC(C)CC(C)/C=C/C(=O)NC1CC2(OC1O)C1OC1C(=O)C1OC12` (centres unmarked) [EI-2128-1], the MIC [1] is reported as 0.16 µg/mL (≈ 0.38 µM), the Solubility (Solubility) is reported as “Readily soluble in methanol, acetonitrile, and chloroform” and the MIC [2] is reported as 42 µg/mL (≈ 99.6 µM). It also gave an MIC [3] of 42 µg/mL (≈ 99.6 µM), an MIC [4] of 0.33 µg/mL (≈ 0.783 µM) and an IC50 [5] of 0.1 µM. The MIC [6] was 21 µg/mL (≈ 49.8 µM) and the MIC [7] was 0.33 µg/mL (≈ 0.783 µM).
